# According to US20140066462A1, “TREATMENT OF POLYCYSTIC DISEASE” (Intellikine LLC, priority 2011, published 2014):
# What was measured:
# [1] = tested on: mTOR1/2 signaling; experiment: Western blot of kidney crude lysates of treated PKD(V/V) mice; format: in vivo; details: 0.5 mg/kg p.o., kidney lysates 2 hours later
# Method: (§1) In order to study mechanisms of selective intervention for treating PKD, PKD(V/V) (“V/V”) mice were used. V/V mice are an animal model of PKD which are homozygous for a mutation in PKD 1 (the gene implicated in 85% of PKD). (Yu S, et al. Proc. Natl. Acad. Sci. U.S.A. 2007; 104: 18688-18693.) These mice develop severe PKD rapidly during the postnatal period. P11 V/V mice were treated with Compound A (0.5 mg/kg; “+”) or vehicle (“−”) p.o. Animals were sacrificed 2 hours later and kidney crude lysates were prepared and subjected to Western blot analysis.
# Whole kidneys were isolated from mice and immediately flash frozen. Tissues were ground using a mortar and pestle under a blanket of liquid nitrogen followed by homogenization in lysis buffer. Supernatants were loaded in gels and proteins were separated via electrophoresis. Primary antibodies were used to assess the following proteins: p-Akt (S473), p-Akt (T308), total-Akt, p-4E-BP1, total-4E-BP1, p-S6 ribosomal protein, and total-S6 ribosomal protein.
# [2] = target: mTOR kinase domain (Homo sapiens, UniProt P42345); experiment: in vitro mTOR kinase assay (γ-32P-ATP, purified kinase domain); format: biochemical; details: 10 μM ATP
# Method: Purified mTOR kinase domain was incubated with inhibitors at 2- or 4-fold dilutions over a concentration range of 50-0.001 μM or with vehicle (0.1% DMSO) in the presence of 10 μM ATP, 2.5 μCi of γ-32P-ATP and substrate. Reactions were terminated by spotting onto nitrocellulose or phosphocellulose membranes, depending on the substrate; this membrane was then washed 5-6 times to remove unbound radioactivity and dried. Transferred radioactivity was quantified by phosphorimaging and IC50 values were calculated by fitting the data to a sigmoidal dose-response using Prism software.
# [3] = tested on: PI3K (α, β, γ, and δ); experiment: selectivity of kinase inhibition, mTOR versus PI3K; format: biochemical; details: selectivity mTOR over PI3K α
# [4] = tested on: PKD(V/V) mice; experiment: kidney histology (H&E sections) in PKD(V/V) mice treated P5-P11; format: in vivo; details: P5-P11 dosing
# Method: (§2) To examine Compound A effects on kidney size in V/V mice, V/V mice were treated from P5-P11 with either vehicle or Compound A. Compound A dosing was 0.25 mg/kg on P5/P6, then 0.25 mg/kg bid on P7/P8, then 0.5 mg/kg bid on P9-11. Animals were sacrificed 2 hours after […] dose; kidneys were weighed, and one kidney was subjected to western blot and one to sectioning for histology.
# Sagittal sections of the left kidney from mice treated with vehicle or Compound A were fixed, embedded in paraffin, and sectioned for histological analysis as described in Piontek K B, et. al, (2004) J Am Soc Nephrol 15:3035-33043. Sections were stained with H&E at observed with a microscope at 4×, […], 20×, and 40× magnification. (FIGS. 6-9) Cyst volume was lower and parenchyma was increased in Compound A-treated mice, quantitated using ImageJ software. The number of glomeruli was increased in the Compound A treated section as compared to the vehicle treated section. […] (FIG. 9)
# [5] = tested on: PKD(V/V) mice; experiment: body and kidney mass in PKD(V/V) mice treated P5-P11; format: in vivo
# Method: as §1, §2
# [6] = tested on: cellular proliferation; experiment: inhibition of cellular proliferation; format: cell-based
# [7] = left kidney sagittal sections, ImageJ
# mTOR kinase domain, sequence (P42345 2156-2469 limits assumed, species assumed): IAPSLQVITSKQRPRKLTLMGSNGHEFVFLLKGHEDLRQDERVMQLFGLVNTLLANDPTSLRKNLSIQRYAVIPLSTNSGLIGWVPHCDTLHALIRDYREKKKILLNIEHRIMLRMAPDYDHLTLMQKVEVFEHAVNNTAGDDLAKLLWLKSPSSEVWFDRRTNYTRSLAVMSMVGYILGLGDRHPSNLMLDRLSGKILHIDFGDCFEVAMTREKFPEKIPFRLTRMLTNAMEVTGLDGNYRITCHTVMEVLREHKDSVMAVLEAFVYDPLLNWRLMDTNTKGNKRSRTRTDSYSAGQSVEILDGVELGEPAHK
smiles,measurement,setting,value
CC(C)(CO)n1nc(-c2ccc3oc(N)nc3c2)c2c(N)ncnc21 [Compound A],Baseline phosphorylation of S6 in wt and mutant mice,[1],markedly attenuated
same,S6-RP expression,[1],relatively unaffected
same,Akt S473 and T308 phosphorylation,[1]; P11 V/V mice,moderately attenuated
same,Total Akt,[1]; P11 V/V mice,unaffected
same,p4E-BP1 in mutant mice,[1]; P11 V/V mice,markedly inhibited
same,pS6-RP in mutant mice,[1]; P11 V/V mice,markedly inhibited
same,Baseline phosphorylation and expression of 4E-BP1 in wt mice,[1]; wt mice,markedly attenuated
same,IC50,[2],< 100 nM
same,"more effective in inhibiting mTOR activity than that of PI3K (α, β, γ, and δ)",[3],over 1000 ×
same,"number of glomeruli, compared to the vehicle treated section",[4]; 20× magnification,increased
same,"appearance of the glomeruli, compared to the untreated kidney",[4]; 40× magnification,appeared normal
same,Cyst volume,[4]; [7],lower
same,parenchyma,[4]; [7],increased
same,kidney mass in Het/WT,"[5]; Het/WT mice, P5-P11 dosing, p=0.22",not significantly changed
same,normalized kidney mass in Het/WT mice,"[5]; Het/WT mice, P5-P11 dosing, p=0.5",no significant effect
same,Body mass in mutant and in Het/WT mice,"[5]; P5-P11, 0.25 mg/kg P5/P6, 0.25 mg/kg bid P7/P8, 0.5 mg/kg bid P9-11, p<0.05",decreased
same,"Average kidney mass, compared to vehicle treated mutants","[5]; V/V mutants, P5-P11 dosing, p=0.007",significantly lower
same,"Normalized kidney mass (combined kidney weight/body weight), compared with vehicle-treated mutants","[5]; V/V mutants, P5-P11 dosing, p=0.01",significantly lower
same,IC50,[6],10 to 100 nM
CC(=O)Nc1nc2cc(-c3nn(C(C)C)c4ncnc(N)c34)ccc2o1 [Compound D],IC50,[2],< 100 nM
CC(CO)n1nc(-c2ccc3oc(N)nc3c2)c2c(N)ncnc21 (stereo not drawn) [Compound B],IC50,[2],< 100 nM
